These are literature values, as cited in patent publication US20140335365A1, “GYPSUM BOARD HAVING MOLD RESISTANCE” (priority 2007, published 2014).

Like-named read-outs stand apart in the source and are kept apart here.

As for `CCCCNC(=O)OCC#CI` [IPBC, 3-iodo-2-propyl butyl carbamate], the water solubility is on record as 156 ppm. For the same molecule, the “water solubility” value (Table 1, anti-mold agents used) was 156 ppm.

For the molecule `[O-][n+]1ccccc1[S][Na]` [SPT, (2-pyridinethiol-1-oxide) sodium], the water solubility is given as 530000 ppm. For the same molecule, the “water solubility” value (Table 1, anti-mold agents used) was 530000 ppm.

For `c1ccc2[nH]c(-c3cscn3)nc2c1` [TBZ, 2-(4-thiazolyl)-benzimidazole], the water solubility is recorded as 30 ppm. For the same molecule, the “water solubility” value (Table 1, anti-mold agents used) is recorded as 30 ppm.

In the case of `N#CSCSc1nc2ccccc2s1` [TCMTB, 2-(4-thiocyanomethylthio)benzothiazole], the water solubility is listed as 330 ppm.

On to `[O-]n1ccccc1=S.[O-]n1ccccc1=S.[Zn+2]` [ZPT, Bis[1-hydroxy-2(1H)pyridinethionato]zinc], for which the water solubility is on record as 15 ppm.

In the case of `Cc1ccc(S(=O)(=O)C(I)I)cc1` [diiodomethyl-p-tolylsulfone, 1-[(diiodomethyl)sulfonyl]-4-methylbenzene], the water solubility is 100 ppm.

Turning to `O=C1c2ccccc2C(=O)N1SC(F)(Cl)Cl` [fluor-folpet, N-(fluorodichloromethylthio)-phthalimide], the water solubility result is “insoluble”.

Take `Oc1cc(Cl)ccc1Oc1ccc(Cl)cc1Cl` [triclosan, 2,4,4′-trichloro-2′-hydroxydiphenylether]: the water solubility is listed as 10 ppm.
